Laboratory results published in patent US8378104B2 (OSI Pharmaceuticals, LLC, priority 2010, dated 2013).
Where a name gives a salt, the structure may show the parent alone.

molecular target: T1, TAK1-TAB1 fusion protein (Homo sapiens, UniProt O43318); test: TAK1 biochemical assay (AlphaScreen, GST-MAP2K7 substrate); details: not given
T1 construct: purchased Carna
T1 sequence (O43318 with tags, fused parts or gaps limits assumed): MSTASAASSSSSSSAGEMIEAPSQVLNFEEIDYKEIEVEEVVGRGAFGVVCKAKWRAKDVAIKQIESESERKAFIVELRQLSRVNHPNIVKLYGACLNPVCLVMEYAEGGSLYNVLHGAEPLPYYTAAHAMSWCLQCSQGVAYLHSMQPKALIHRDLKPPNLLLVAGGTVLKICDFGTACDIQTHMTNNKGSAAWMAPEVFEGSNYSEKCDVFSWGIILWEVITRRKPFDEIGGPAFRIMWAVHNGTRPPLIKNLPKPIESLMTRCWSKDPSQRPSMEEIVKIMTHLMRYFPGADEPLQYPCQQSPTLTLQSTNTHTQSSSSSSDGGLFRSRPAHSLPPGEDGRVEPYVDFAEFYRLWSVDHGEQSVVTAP

Row | IC50 [µM] | Structure (SMILES)
1 | 1 to 10 | Cc1c(-c2cnc(N)c3oc(-c4csc5cnccc45)cc23)cnn1C [Example 292, 4-(1,5-dimethyl-1H-pyrazol-4-yl)-2-thieno[2,3-c]pyridin-3-yl-furo[2,3-c]pyridin-7-ylamine]

same assay, conditions: TAK1-TAB1 fusion protein, GST-MAP2K7 substrate; read-out: mean TAK1 IC50 (Col. A)

Row | Structure (SMILES) | IC50 [µM]
2 | COc1c(-c2cnc(N)c3oc(-c4csc5cnccc45)cc23)cnn1C [Example 344, 4-(5-methoxy-1-methyl-1H-pyrazol-4-yl)-2-thieno[2,3-c]pyridin-3-yl-furo[2,3-c]pyridin-7-ylamine] | 0.1 to 1
3 | CC(=O)N1CCC(n2cc(-c3cnc(N(C)C)c4oc(-c5csc6cnccc56)cc34)cn2)CC1 [Example 276, 1-(4-{4-[7-(dimethylamino)-2-(thieno[2,3-c]pyridin-3-yl)furo[2,3-c]pyridin-4-yl]-1H-pyrazol-1-yl}piperidin-1-yl)ethanone trifluoroacetic acid salt] | 1 to 10
4 | CC(=O)Nc1ccc(-c2cc3c(-c4cnn(C5CCN(C(C)=O)CC5)c4)cnc(N)c3o2)cn1 [Example 126, N-(5-{4-[1-(1-acetylpiperidin-4-yl)-1H-pyrazol-4-yl]-7-aminofuro[2,3-c]pyridin-2-yl}pyridin-2-yl)acetamide] | 1 to 10
5 | CC(=O)N1CCC(n2cc(-c3cnc(N)c4oc(-c5c(C#CC(C)(C)O)sc6cnccc56)cc34)cn2)CC1 [Example 265, 1-[4-(4-{7-amino-2-[2-(3-hydroxy-3-methylbut-1-yn-1-yl)thieno[2,3-c]pyridin-3-yl]furo[2,3-c]pyridin-4-yl}-1H-pyrazol-1-yl)piperidin-1-yl]ethanone trifluoroacetate] | 0.1 to 1
6 | CCOC(=O)[C@H]1CC[C@H](n2cc(-c3cnc(N)c4oc(-c5csc6cnccc56)cc34)c(C)n2)CC1 [Example 298, 4-[4-(7-amino-2-thieno[2,3-c]pyridin-3-yl-furo[2,3-c]pyridin-4-yl)-3-methyl-pyrazol-1-yl]-cyclohexane carboxylic acid ethyl ester] | > 10
7 | CCCOc1cccc(-c2cc3c(-c4cnn(C5CCN(C(C)=O)CC5)c4)cnc(N)c3o2)c1 [Example 181, 1-(4-{4-[7-amino-2-(3-propoxyphenyl)furo[2,3-c]pyridin-4-yl]-1H-pyrazol-1-yl}piperidin-1-yl)ethanone] | > 10
8 | Cc1c(-c2cnc(N)c3oc(-c4csc5cnccc45)cc23)cnn1[C@@H]1C[C@@H](O)[C@@H](O)C1 [Example 312, rel-(1R,2S,4S)-4-[4-(7-amino-2-thieno[2,3-c]pyridin-3-yl-furo[2,3-c]pyridin-4-yl)-5-methyl-pyrazol-1-yl]-cyclopentane-1,2-diol] | 1 to 10
9 | Nc1ncc(-c2cnn(C3CCNCC3)c2)c2c(Cl)c(-c3ccc4[nH]ccc4c3)oc12 [Example 14, 3-chloro-2-(1H-indol-5-yl)-4-[1-(piperidin-4-yl)-1H-pyrazol-4-yl]furo[2,3-c]pyridin-7-amine hydrochloride] | 1 to 10
10 | CC(=O)N1CCC(n2cc(-c3cnc(N)c4oc(-c5ccc(CO)cc5)cc34)cn2)CC1 [Example 184, 1-[4-(4-{7-amino-2-[4-(hydroxymethyl)phenyl]furo[2,3-c]pyridin-4-yl}-1H-pyrazol-1-yl)piperidin-1-yl]ethanone] | 1 to 10
11 | Nc1ncc(-c2cnn([C@H]3CC[C@H](O)CC3)c2)c2cc(-c3c(-c4cccc(F)c4)ccc4cnsc34)oc12 [Example 356, trans-4-(4-{7-amino-2-[6-(3-fluorophenyl)-1,2-benzothiazol-7-yl]furo[2,3-c]pyridin-4-yl}-1H-pyrazol-1-yl)cyclohexanol] | > 10
12 | CC(=O)N1CCC(n2cc(-c3cnc(N)c4oc(-c5c(-c6ccccc6)sc6cnccc56)cc34)cn2)CC1 [Example 263, 1-(4-{4-[7-amino-2-(2-phenylthieno[2,3-c]pyridin-3-yl)furo[2,3-c]pyridin-4-yl]-1H-pyrazol-1-yl}piperidin-1-yl)ethanone trifluoroacetate] | 0.1 to 1
13 | Nc1ncc(-c2cnn(C3CCNCC3)c2)c2cc(-c3cccc4cccnc34)oc12 [Example 32, 4-[1-(piperidin-4-yl)-1H-pyrazol-4-yl]-2-(quinolin-8-yl)furo[2,3-c]pyridine-7-amine] | 1 to 10

Next, values leading:

Row | IC50 [µM] | Structure (SMILES)
14 | 1 to 10 | CN(C)S(=O)(=O)Nc1cccc(-c2cc3c(-c4cnn(C5CCNCC5)c4)cnc(N)c3o2)c1 [Example 24, N′-(3-{7-amino-4-[1-(piperidin-4-yl)-1H-pyrazol-4-yl]furo[2,3-c]pyridine-2-yl}phenyl)-N,N-dimethylsulfuric diamide]
15 | 1 to 10 | Nc1ncc(-c2cnn(C3CCN(C(=O)CCC4CCCC4)CC3)c2)c2cc(-c3csc4cnccc34)oc12 [Example 335, 1-{4-[4-(7-Amino-2-thieno[2,3-c]pyridin-3-yl-furo[2,3-c]pyridin-4-yl)-pyrazol-1-yl]-piperidin-1-yl}-3-cyclopentyl-propan-1-one]
16 | 0.1 to 1 | CC(=O)N1CCC(n2cc(-c3cnc(N)c4oc(-c5cccc(N)c5)cc34)cn2)CC1 [Example 130, 1-(4-{4-[7-amino-2-(3-aminophenyl)furo[2,3-c]pyridin-4-yl]-1H-pyrazol-1-yl}piperidin-1-yl)ethanone]
17 | 1 to 10 | CC(=O)N1CCC(n2cc(-c3cnc(N)c4oc(-c5cccc(S(=O)(=O)N(C)C)c5)cc34)cn2)CC1 [Example 134, 3-{4-[1-(1-acetylpiperidin-4-yl)-1H-pyrazol-4-yl]-7-aminofuro[2,3-c]pyridin-2-yl}-N,N-dimethylbenzenesulfonamide]
18 | 1 to 10 | CC(=O)Nc1cccc(-c2cc3c(-c4cnn(C5CCN(C(C)=O)CC5)c4)cnc(N)c3o2)c1 [Example 137, N-(3-{4-[1-(1-acetylpiperidin-4-yl) 1H-pyrazol-4-yl]-7-aminofuro[2,3-c]pyridin-2-yl}phenyl)acetamide]
19 | > 10 | COC(=O)c1cc(-c2cnc(N)c3oc(-c4csc5cnccc45)cc23)cs1 [Example 378, 4-(7-amino-2-thieno[2,3-c]pyridin-3-yl-furo[2,3-c]pyridin-4-yl)-thiophene-2-carboxylic acid methyl ester]
20 | > 10 | CC(=O)N1CCC(n2cc(-c3cnc(N)c4oc(-c5ccc(Oc6ccccc6)cc5)cc34)cn2)CC1 [Example 159, 1-(4-{4-[7-amino-2-(4-phenoxyphenyl)furo[2,3-c]pyridin-4-yl]-1H-pyrazol-1-yl}piperidin-1-yl)ethanone]
21 | 1 to 10 | Nc1ncc(-c2cnn(C3CCNCC3)c2)c2cc(-c3cccc4ccccc34)oc12 [Example 3, 2-(naphthalen-1-yl)-4-[1-(piperidin-4-yl)-1H-pyrazol-4-yl]furo[2,3-c]pyridin-7-amine]
22 | 0.1 to 1 | COc1cccc2cc(C=CC(=O)N3CCC(n4cc(-c5cnc(N)c6oc(-c7csc8cnccc78)cc56)cn4)CC3)oc12 [Example 333, 1-{4-[4-(7-amino-2-thieno[2,3-c]pyridin-3-yl-furo[2,3-c]pyridin-4-yl)-pyrazol-1-yl]-piperidin-1-yl}-3-(7-methoxy-benzo-furan-2-yl)-propenone]
23 | > 10 | CC(=O)N1CCC(n2cc(-c3cnc(N)c4oc(-c5ccccc5C(F)(F)F)cc34)cn2)CC1 [Example 411, 1-[4-(4-{7-amino-2-[2-(trifluoromethyl)phenyl]furo[2,3-c]pyridin-4-yl}-1H-pyrazol-1-yl)piperidin-1-yl]ethanone]
24 | 1 to 10 | Nc1ncc(-c2cnn(C3CCNCC3)c2)c2cc(-c3cc(F)cc(C(F)(F)F)c3)oc12 [Example 7, 2-[3-fluoro-5-(trifluoromethyl)phenyl]-4-[1-(piperidin-4-yl)-1H-pyrazol-4-yl]furo[2,3-c]pyridin-7-amine]
25 | 1 to 10 | Nc1ncc(-c2ccsc2)c2cc(-c3csc4cnccc34)oc12 [Example 391, 2-(thieno[2,3-c]pyridin-3-yl)-4-(thiophen-3-yl)furo[2,3-c]pyridin-7-amine trifluoroacetate]
26 | 1 to 10 | Nc1ncc(-c2cnn(C3CCNCC3)c2)c2cc(-c3cccc4nn[nH]c34)oc12 [Example 46, 2-(1H-benzotriazol-7-yl)-4-[1-(piperidin-4-yl)-1H-pyrazol-4-yl]furo[2,3-c]pyridine-7-amine]
27 | 1 to 10 | CC(=O)N1CCC(n2cc(-c3cnc(N)c4oc(-c5ccc6c(c5)CC(=O)N6)cc34)cn2)CC1 [Example 103, 5-{4-[1-(1-acetylpiperidin-4-yl)-1H-pyrazol-4-yl]-7-aminofuro[2,3-c]pyridin-2-yl}-1,3-dihydro-2H-indol-2-one]
28 | 1 to 10 | Cc1ncc(-c2cnc(N)c3oc(-c4csc5cnccc45)cc23)n1C [Example 397, 4-(2,3-dimethyl-3H-imidazol-4-yl)-2-thieno[2,3-c]pyridin-3-yl-furo[2,3-c]pyridin-7-ylamine]
29 | 1 to 10 | CCC(=O)N1CCC(n2cc(-c3cnc(N)c4oc(-c5cccc6ccsc56)cc34)cn2)CC1 [Example 58, 1-(4-{4-[7-amino-2-(1-benzothiophen-7-yl)furo[2,3-c]pyridin-4-yl]-1H-pyrazol-1-yl}piperidin-1-yl)propan-1-one]
30 | 0.1 to 1 | CC(=O)N1CCC(n2cc(-c3cnc(N)c4oc(-c5ccc6cn[nH]c6c5)cc34)cn2)CC1 [Example 99, 1-(4-{4-[7-amino-2-(1H-indazol-6-yl)furo[2,3-c]pyridin-4-yl]-1H-pyrazol-1-yl}piperidin-1-yl)ethanone]
31 | 0.1 to 1 | Nc1ncc(-c2cnn(C3CCNCC3)c2)c2cc(-c3cccc4cc[nH]c34)oc12 [Example 42, 2-(1H-indol-7-yl)-4-[1-(piperidin-4-yl)-1H-pyrazol-4-yl]furo[2,3-c]pyridin-7-amine]
32 | 1 to 10 | Nc1ncc(-c2ccc(C(=O)O)s2)c2cc(-c3csc4cnccc34)oc12 [Example 381, 5-(7-amino-2-thieno[2,3-c]pyridin-3-yl-furo[2,3-c]pyridin-4-yl)-thiophene-2-carboxylic acid]
